PubChem BioAssay (NCI)
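These data come from cells grown in 96-well plates and exposed to compound for 48 hours at five concentrations. GI50: concentration for 50% inhibition of growth. TGI: concentration producing complete growth inhibition.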

Experiments:
Assay in all cases: DTP human tumour cell line panel, 48 h
CAKI-1 renal = tested on: CAKI-1 renal
EKVX NSCLC = tested on: EKVX NSCLC
HS 578T breast = tested on: HS 578T breast
HT29 colon = tested on: HT29 colon
KM12 colon = tested on: KM12 colon
NCI-H23 lung = tested on: NCI-H23 lung
OVCAR-3 ovarian = tested on: OVCAR-3 ovarian
OVCAR-5 ovarian = tested on: OVCAR-5 ovarian
T-47D breast = tested on: T-47D breast
UO-31 renal = tested on: UO-31 renal

Row | SMILES | TGI (CAKI-1 renal) [µM] | TGI (EKVX NSCLC) [µM] | TGI (HS 578T breast) [µM] | TGI (HT29 colon) [µM] | TGI (KM12 colon) [µM] | TGI (NCI-H23 lung) [µM] | TGI (OVCAR-3 ovarian) [µM] | TGI (OVCAR-5 ovarian) [µM] | TGI (T-47D breast) [µM] | TGI (UO-31 renal) [µM] | GI50 (CAKI-1 renal) [nM] | GI50 (EKVX NSCLC) [µM] | GI50 (HS 578T breast) [µM] | GI50 (KM12 colon) [µM] | GI50 (NCI-H23 lung) [µM] | GI50 (OVCAR-3 ovarian) [µM] | GI50 (OVCAR-5 ovarian) [µM] | GI50 (T-47D breast) [µM] | GI50 (UO-31 renal) [µM] | GI50 (HT29 colon) [µM]
1 | COc1ccc2c(=O)c3ccoc3n(CC=C(C)C)c2c1 | 9.83 | > 100 | > 100 | > 100 | > 100 | > 100 | > 100 | > 100 | > 100 | > 100 | – | – | – | – | – | – | – | – | – | –
2 | COC1CC2CCC(C)C(O)(O2)C(=O)C(=O)N2CCCCC2C(=O)OC(C(C)CC2CCC(O)C(OC)C2)CC(=O)C(C)C=C(C)C(O)C(OC)C(=O)C(C)CC(C)/C=C/C=C/C=C1C (centres undefined) | 47.8 | 13.7 | 24.4 | 10.8 | 11.2 | 15.5 | 10.9 | 14.3 | 20.9 | 8.08 | 2580 | < 0.005 | 0.00742 | 3.47 | 0.0688 | 4.49 | 6.41 | < 0.005 | < 0.005 | –
3 | CC[C@H](Nc1nc(NCc2cnc(C)cc2C)c2ncn(C(C)C)c2n1)[C@@H](C)O | > 100 | 2.02 | 0.956 | > 100 | 12.2 | 2.15 | > 24.1 | > 100 | > 100 | > 100 | 269 | 0.319 | 0.281 | 0.312 | 0.334 | 0.355 | 0.282 | 0.402 | 0.272 | 0.331
4 | Cc1ccc(-n2c3c(c4c(CN(C)C)c(O)ccc42)CCc2ccccc2C3=O)cc1 | 44.1 | > 100 | 57.7 | > 100 | 40 | 29.6 | 44.5 | 52.9 | > 100 | 38.2 | 17200 | 38 | 21.3 | 19.3 | 14.6 | 21.4 | 19.7 | > 100 | 15.9 | > 100
5 | O=c1c2ccccc2n(C[C@H]2CO2)c2ccccc12 | 8.26 | 6.44 | 5.89 | 7.91 | 7.02 | 4.52 | 7.19 | 6.41 | 8.38 | 4.96 | 1830 | 2.56 | 2.05 | 2.19 | 1.42 | 2.31 | 2.44 | 2.53 | 1.72 | 2.24
6 | C/C(=N/Nc1nc2ccccc2n1C)c1ccccn1 | 2.14 | 13.5 | 25.6 | 24.4 | 20.7 | 19.3 | 14.1 | 39.7 | 11.6 | 1.59 | 104 | 0.0418 | 0.287 | 0.202 | 0.0443 | < 0.0153 | 0.243 | < 0.0144 | 0.0672 | 0.044
7 | O=c1ccn(C2OC(CO/N=C/c3ccc(O)c(O)c3O)C(O)C2O)c(=O)[nH]1 (centres undefined) | > 100 | > 100 | 59.7 | 84.3 | > 100 | 49.6 | 27.7 | > 100 | 50.3 | 31.6 | 49700 | 33.9 | 22.8 | 35.4 | 22.6 | 13.6 | > 100 | 21.8 | 17.2 | 28.9
8 | O=C(Nc1cccc(Cl)c1)c1ccc(NC2=C(Cl)C(=O)N(Cc3ccccc3)C2=O)cc1 | 50.8 | > 69.3 | 48.5 | > 100 | > 56.2 | 27 | 13.8 | > 61.6 | > 54.4 | > 100 | 14700 | > 46 | 18.6 | > 38.3 | 13.6 | 6.08 | 24.8 | 17.8 | > 26.3 | 8.43
9 | O=C1CCCCCCCC/C=C\CC(c2ccco2)O1 (centres undefined) | > 100 | 75.7 | > 100 | 99.5 | > 100 | > 100 | > 100 | > 100 | 57 | 39.9 | 49400 | 26.7 | 32.4 | 28.5 | 35.8 | 32.2 | 22.5 | 13.1 | 21.5 | 27
10 | Cc1cc(S(N)(=O)=O)c(S/C(CC(C)C)=N\Nc2ccc([N+](=O)[O-])cc2)cc1Cl | 6.85 | 31.3 | 30.1 | 15.3 | 13.2 | 12.6 | 7.07 | 27.9 | 8.33 | 23.6 | 2240 | 16.6 | 11.9 | 3.32 | 3.74 | 3.19 | 14.8 | 3.1 | 11.1 | 3.88
11 | O=C(CNc1ccc2c(c1)C(=O)c1ccccc1C2=O)Nc1ccc2c(c1)C(=O)c1ccccc1C2=O | 3.03 | 4.02 | 13.2 | 1.69 | 2.73 | 1.09 | 1.83 | 3.4 | 2.32 | 3.1 | 1500 | 1.88 | 2.29 | 1.4 | 0.304 | 0.71 | 1.84 | 0.604 | 1.67 | 0.451
12 | O=C(c1ccco1)c1nc2cc(Cl)ccc2[n+]([O-])c1C(F)(F)F | 73.9 | > 100 | > 100 | > 100 | > 100 | > 100 | > 100 | > 100 | > 100 | > 100 | 28300 | 37.6 | > 100 | 29.3 | 42 | > 100 | > 100 | 27.5 | > 100 | 52.9
